# Test results published in PubChem BioAssay (NCI).
#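 Each compound was tested at five concentrations against cells in 96-well plates for 48 hours. TGI: concentration producing complete growth inhibition.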
# Legend:
# Test in all cases: growth of human tumour cells (NCI), 48 h
# HL-60(TB) leukemia = tested on: HL-60(TB) leukemia
# NCI-H23 lung = tested on: NCI-H23 lung
# RPMI-8226 leukemia = tested on: RPMI-8226 leukemia
# SNB-19 CNS = tested on: SNB-19 CNS
# 786-0 renal = tested on: 786-0 renal
# PC-3 prostate = tested on: PC-3 prostate
# SK-OV-3 ovarian = tested on: SK-OV-3 ovarian
# DU-145 prostate = tested on: DU-145 prostate
# UACC-62 melanoma = tested on: UACC-62 melanoma
# COLO 205 colon = tested on: COLO 205 colon
# EKVX NSCLC = tested on: EKVX NSCLC
# SK-MEL-2 melanoma = tested on: SK-MEL-2 melanoma
# OVCAR-4 ovarian = tested on: OVCAR-4 ovarian
# RXF 393 renal = tested on: RXF 393 renal
# NCI-H460 lung = tested on: NCI-H460 lung
SMILES,TGI (HL-60(TB) leukemia) [µM],TGI (NCI-H23 lung) [µM],TGI (RPMI-8226 leukemia) [µM],TGI (SNB-19 CNS) [µM],TGI (786-0 renal) [µM],TGI (PC-3 prostate) [µM],TGI (SK-OV-3 ovarian) [µM],TGI (DU-145 prostate) [µM],TGI (UACC-62 melanoma) [µM],TGI (COLO 205 colon) [µM],TGI (EKVX NSCLC) [µM],TGI (SK-MEL-2 melanoma) [µM],TGI (OVCAR-4 ovarian) [µM],TGI (RXF 393 renal) [µM],TGI (NCI-H460 lung) [µM]
O=C(c1ccc(Cl)cc1)N(C(=O)N1CCCCC1)c1ccccc1,> 100,> 100,> 100,> 100,> 100,> 100,> 100,> 100,> 100,> 100,> 100,> 100,,,
O=C(O)CCCc1ccc2c(c1)CC1(C2)Cc2cc3c(cc2C1)CCCC3,28.2,49.2,53.2,,58.6,66.8,52.9,,> 100,38.2,> 100,35.3,45.6,> 100,
COc1cc2nc(Cl)nc(NS(=O)(=O)c3cc4ccccc4s3)c2cc1OC,,62.5,44.9,48.6,> 100,75.6,98.5,60.1,39.3,> 100,66.5,61.1,88.1,37.9,> 100
O=C(NCCC1CNc2ccccc21)OCc1ccccc1 (centres undefined),,> 100,> 100,> 100,> 100,> 100,> 100,> 100,> 100,> 100,> 100,> 100,> 100,> 100,> 100
CC(N)(CC(O)(C(F)(F)Cl)C(F)(F)Cl)C(=O)O (centres undefined),,> 10,,> 10,> 10,> 10,> 10,> 10,> 10,> 10,> 10,,> 10,,> 10
COC(=O)[C@@]12OC[C@]34C([C@@H](O)C1O)[C@@]1(C)CC(=O)C(OC(=O)CC(C)C(F)(F)F)=C(C)C1C[C@H]3OC(=O)[C@H](O)[C@H]42 (some centres undefined),1.98,8.69,5.56,22.4,38.5,,> 62.5,,4.37,30,> 62.5,15.5,> 62.5,23.6,> 62.5
O=C(c1ccccc1)C1(Br)S(=O)(=O)OCCOS1(=O)=O,> 100,> 100,> 100,> 100,> 100,,> 100,,> 100,> 100,> 100,> 100,> 100,> 100,> 100
C[C@H]1CC[C@@]2(OC1)O[C@H]1C[C@H]3[C@@H]4CC[C@@H]5C[C@@H](OC6OC(CO)C(O)C(O)C6OC6OC(CO)C(O)C(O)C6O)CC[C@]5(C)[C@H]4CC[C@]3(C)[C@H]1[C@@H]2C (some centres undefined),3.25,4.06,3.97,3.9,3.69,3.84,3.29,4.1,4.16,3.55,3.79,4.03,4.08,,
CCOC(=O)C1(C/C=C\CBr)CCCC1=O (centres undefined),,56.7,,> 100,> 100,> 100,> 100,73.2,39.8,> 100,> 100,> 100,> 100,31.3,
CC(SC(=S)N1CCOCC1)C(=O)Nc1nnc(-c2ccc(Cl)cc2)o1 (centres undefined),,> 100,66.3,> 100,> 100,> 100,> 100,> 100,> 100,> 100,,> 100,> 100,> 100,> 100
O=c1c(-c2ccccc2)nnc2n(Cc3ccccc3)c3ccccc3n12,> 100,> 100,,> 100,> 100,,,> 100,,> 100,> 100,> 100,> 100,> 100,> 100
Cc1cc(O)c(/C=N/C(N)=S)c(=O)o1,41.2,> 100,,> 100,> 100,> 100,> 100,> 100,> 100,> 100,> 100,> 100,> 100,> 100,> 100
COC(=O)[C@@H]1[C@@H]2NC(=S)N[C@@]1(C)Oc1ccccc12,,> 100,> 100,> 100,> 100,> 100,> 100,> 100,> 100,> 100,> 100,> 100,> 100,> 100,> 100
COC1(OC)CCc2c(sc3ncnc(Nc4cccc(Br)c4)c23)C1,,> 100,59.5,> 100,> 100,> 100,> 100,53.9,> 100,> 100,59.2,> 100,> 100,62.4,> 100
O=c1[nH]c(N/N=C\C(O)C(O)C(O)C(O)CO)nc2ccccc12 (centres undefined),> 100,> 100,> 100,> 100,> 100,> 100,> 100,> 100,> 100,> 100,> 100,> 100,,,> 100
O=c1[nH]c2[nH]c(=S)[nH]c(=S)c2[nH]1,> 100,> 100,> 100,> 100,> 100,> 100,,,> 100,,> 100,> 100,> 100,> 100,> 100
Clc1ccc(C=Nc2ccc(Oc3ccc(Cl)cc3)c(Cl)c2)cc1,63.8,54.2,> 100,56.2,36.1,69.8,50.2,> 100,41.5,36.5,70.2,54.2,76.1,,44.5
